The values that follow are results of earlier work, collected in patent US20210324031A1, “COMPOUNDS, COMPOSITIONS, METHODS, AND USES FOR TREATING LEPTIN RESISTANCE, OBESITY, DIABETES MELLITUS AND METABOLIC SYNDROME” (priority 2019, published 2021).

The subject of data set [1] is CD30+ ALCL type tumor Karpas 299.
The conditions of data set [2]: Human cancer clinical trials.

Where a SMILES comes first, the peptide text is derived from it. [ ]: non-standard residue; d: D form. The star is where a group is joined. Dolaproine = CO[C@@H]([C@@H]1CCCN1)[C@@H](C)C(=O)O; Dil = CC[C@H](C)[C@H](NC)[C@@H](CC(=O)O)OC; X1 = C[C@@H](N*)[C@@H](O)c1ccccc1; NMeV = CN[C@H](C(=O)O)C(C)C

In the case of `CC[C@H](C)[C@@H]([C@@H](CC(=O)N1CCC[C@H]1[C@H](OC)[C@@H](C)C(=O)N[C@H](C)[C@@H](O)c1ccccc1)OC)N(C)C(=O)[C@@H](NC(=O)[C@@H](NC)C(C)C)C(C)C` [MMAE, monomethyl auristatin E] (H-[NMeV]V[Dil][Dolaproine]-X1), in data set [1] (ADC format, conjugated to an anti-CD30 antibody, drug to antibody ratio 2:1, MMAE dose 10 times lower than the free drug), the “control of tumor growth” value is reported as “completely control tumor growth”. Further, in data set [1] (free drug at maximal tolerated dose 0.3 mg/kg, compared with saline), the “halt of tumor growth” value is “only slightly better than saline”. Also, the maximal tolerated dose in data set [1] (free drug, mice with human xenografted tumors) is 0.3 mg/kg.
As for `NS(=O)(=O)OC[C@H]1C[C@H](n2ccc3c(N[C@@H]4CCc5ccccc54)ncnc32)C[C@H]1O` (stereo in doubt) [MLN4924, ((1R,2R,4S)-4-(4-(((R)-2,3-dihydro-1H-inden-1-yl)amino)-7H-pyrrolo[2,3-d]pyrimidin-7-yl)-2-hydroxycyclopentyl)methyl sulfamate], the “toxicity in clinical trials” value in data set [2] is recorded as “toxic”.
